# Measured values: patent EP3785696A1, “COSMETIC USE OF AROMATIC FORMAMIDINE DERIVATIVES” (B.R.A.I.N. Biotechnology Research And Information Network AG, priority 2019, dated 2021)
# Experiments:
# Format in all cases: cell-based
# [1] = tested on: MelanoDerm™ (Mattek Corp.) tissues; assay: MelanoDerm™ assay: melanin content in reconstructed skin tissues; settings: 336 h, 14 days of treatment, melanin content normalized on protein content, read-out: % inhibition relative to negative control
# Protocol: Phenotypic skin lightening was assessed in reconstructed skin using MelanoDerm™ (Mattek Corp.) tissues (Figure 1).
# Controls were: negative control (ultrapure water) and positive control (10 µM Ketoconazol). Test compounds were prepared in DMSO with a concentration of 10 mM and diluted in EPI-100-LLM medium (Mattek Corp.) to a final concentration of 25 µM.
# MelanoDerm™ tissues were equilibrated in pre-warmed EPI-100-LLMM medium (6-Well plates, 5 ml per well) for 1 h (37°C, 5 % CO2) before treatment. Test compounds were applied systemically by addition into the culture medium. […] At the end of the treatment, tissues were analyzed via macroscopic/microscopic images and in vitro assay, for viability and for melanin content. […] Cytotoxicity was assessed using microscopic tissue images (10× magnification). Tissue viability as a result of test compound relative to negative control was determined using Cell Proliferation Reagent WST-1 (cat# 05015944001, Roche). For melanin quantitation tissues were submerged for 5 min in phosphate buffered saline (PBS, 5 ml), removed from PBS and rinsed with additional 2 ml PBS. […] All incubated samples were centrifuged at 13,000 rpm for 5 min and the optical density of the supernatant (200 µl) was measured at 490 nm. The amount of melanin (µg) from each tissue sample was determined using the melanin standard samples calibration curve. […]
# MC1-R = target: T1, MC1-R (Homo sapiens, UniProt Q01726, A105V); assay: Determination of compound activity on MC1-R (antagonist testing, Fluo-4 Ca2+ fluorescence in HEK293/Gα15/MC1-R cells); settings: 25 µM
# T1 construct: MC1-R cDNA expression results in the corresponding protein (NP_002377.4); expressed in transfected cells
# T1 sequence (Q01726 1-317 A105V): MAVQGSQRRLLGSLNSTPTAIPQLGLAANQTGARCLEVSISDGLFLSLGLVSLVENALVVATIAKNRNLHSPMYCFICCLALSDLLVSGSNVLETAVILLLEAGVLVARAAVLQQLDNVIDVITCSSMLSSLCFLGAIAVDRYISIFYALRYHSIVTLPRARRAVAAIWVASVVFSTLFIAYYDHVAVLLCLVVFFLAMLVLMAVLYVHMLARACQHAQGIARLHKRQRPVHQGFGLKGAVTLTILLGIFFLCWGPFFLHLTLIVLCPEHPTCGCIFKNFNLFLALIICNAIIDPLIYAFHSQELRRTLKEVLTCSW
# Text: A MC1-R expressing cell line for assessing melanogenesis modulating activity was established based on engineered HEK 293 cells, stably expressing the murine G-protein Gα15 (NM_010304.3). The promiscuous Gα15 protein couples to MC1-R and therefore links receptor stimulation to Ca^2+-signaling.
# To achieve a stable expression of the target receptor this HEK293/Gα15 cell line was further stably transfected with an expression vector for the human MC1-R receptor. MC1-R cDNA expression results in the corresponding protein (NP_002377.4 with an amino acid replacement at position 105 (A105V)).
# HEK293 cells stably expressing the target receptor MC1-R and the promiscuous murine Gα15 protein (HEK293/Gα15/MC1-R) were established as described above. […] Changes in internal Ca^2+-concentration are measured via the Ca^2+-sensitive fluorescent dye Fluo-4 (2-{[2-(2-{5-[bis(carboxymethyl)amino]-2-methyl-phenoxy}ethoxy)-4-(2,7-difluoro-6-hydroxy-3-oxo-3H-xanthen-9-yl)phenyl](carboxymethyl)amino}acetic acid) in a fluorescence plate reader (FLEX-Station, Molecular Devices) at an excitation wavelength of 488nm and emission of 535nm.
# Recombinant HEK293/Gα15/MC1-R cells were cultured in DMEM with 10% FBS, 2mM glutamine, 1,3 mg/ml geneticin and 5 µg/ml blasticidin. Cells were seeded in 96 well, poly-D-lysine coated, black well/ clear bottom fluorescence plates in medium without antibiotics. […]
# MC2-R = target: T2, MC2-R (Homo sapiens, UniProt Q01718); assay: Determination of compound activity on MC2-R (antagonist testing, Fluo-4 Ca2+ fluorescence in HEK293/Gα15 cells with MC2-R and MRAP); settings: Figure 2; 25 µM, added 10 min prior addition of ACTH (EC80)
# T2 construct: MC2-R cDNA expression results in MC2-R protein NP_000520.1; expressed in transfected cells; host or cells: HEK293/Gα15 cells
# T2 sequence (Q01718 whole entry): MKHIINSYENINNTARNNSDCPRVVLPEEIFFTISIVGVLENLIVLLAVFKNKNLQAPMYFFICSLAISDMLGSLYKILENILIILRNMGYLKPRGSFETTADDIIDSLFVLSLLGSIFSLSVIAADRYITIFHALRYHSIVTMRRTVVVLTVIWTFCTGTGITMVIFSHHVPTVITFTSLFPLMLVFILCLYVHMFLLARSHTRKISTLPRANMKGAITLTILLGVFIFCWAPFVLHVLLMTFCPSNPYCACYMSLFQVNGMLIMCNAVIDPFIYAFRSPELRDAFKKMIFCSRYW
# T2 sequence (Q8TCY5 whole entry partner): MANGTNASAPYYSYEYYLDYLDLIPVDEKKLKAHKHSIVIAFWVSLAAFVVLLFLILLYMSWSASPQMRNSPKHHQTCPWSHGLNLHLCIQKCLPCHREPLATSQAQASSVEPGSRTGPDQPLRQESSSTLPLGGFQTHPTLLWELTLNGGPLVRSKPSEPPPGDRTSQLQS
# Text: HEK293 cells stably expressing the target receptor MC2-R, the accessory protein MRAP and the promiscuous murine Gα15 protein were established on basis of the above-mentioned HEK293/Gα15 cell line. These cells were further transfected with an expression vector comprising human MC2-receptor and additional MRAP (MC2-Receptor Accessory Protein) cDNA. MC2-R cDNA expression results in MC2-R protein NP_000520.1, MRAP cDNA expression results in MRAP protein NP_848932.1.
# Stimulation of MC2-R with ACTH (adrenocorticotropic hormone) increases intracellular Ca^2+-concentration, inhibition of MC2-R decreases these ACTH induced Ca^2+-responses. Changes in intracellular Ca^2+-levels were measured via the Ca^2+-sensitive fluorescent dye Fluo-4 in a fluorescent plate reader.
# (§1) For antagonist-testing, test compound was added to cells with a final concentration of 25 µM 10 min prior addition of ACTH (EC80). The threshold for antagonistic activity was defined in this experiment as 70% of the positive control ACTH (the EC80 value is set as 100%), and the assay was accepted as valid if the standard deviation of the ACTH signal is 10% or less.
# MC3-R = target: T3, MC3-R (Homo sapiens, UniProt P41968); assay: Determination of compound activity on MC3-R (antagonist testing, Fluo-4 Ca2+ fluorescence in HEK293/Gα15 cells); settings: Figure 2; 25 µM, added 10 min prior stimulation with αMSH (EC80)
# T3 construct: MC3-R cDNA expression results in MC3-R protein NP_063941.3; expressed in transfected cells; host or cells: HEK293/Gα15 cells
# T3 sequence (P41968 whole entry): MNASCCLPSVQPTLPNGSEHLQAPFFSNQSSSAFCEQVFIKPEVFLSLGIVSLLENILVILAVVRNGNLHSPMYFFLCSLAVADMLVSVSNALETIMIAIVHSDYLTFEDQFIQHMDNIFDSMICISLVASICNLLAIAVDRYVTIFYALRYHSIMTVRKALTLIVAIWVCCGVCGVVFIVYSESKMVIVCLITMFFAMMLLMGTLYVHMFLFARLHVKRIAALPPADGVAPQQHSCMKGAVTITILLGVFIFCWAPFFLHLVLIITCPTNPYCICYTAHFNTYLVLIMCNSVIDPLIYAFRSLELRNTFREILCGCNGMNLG
# Text: (§2) HEK293 cells stably expressing the target receptor MC3-R and the promiscuous murine Gα15 protein were established on basis of the above-mentioned HEK293/Gα15 cell line. These cells were further transfected with an expression vector comprising the human MC3-receptor cDNA. MC3-R cDNA expression results in MC3-R protein NP_063941.3.
# Stimulation of MC3-R with αMSH increases intracellular Ca^2+-concentration, inhibition of MC3-R decreases these αMSH induced Ca^2+-responses. Changes in intracellular Ca^2+-levels were measured via the Ca^2+-sensitive fluorescent dye Fluo-4 in a fluorescent plate reader.
# as §1, with “stimulation with αMSH (using EC80).” for “addition of ACTH (EC80).”, “defined” for “defined in this experiment”, “αMSH” for “ACTH”
# MC4-R = target: T4, MC4-R (Homo sapiens, UniProt P32245); assay: Determination of compound activity on MC4-R (antagonist testing, Fluo-4 Ca2+ fluorescence in HEK293/Gα15 cells); settings: Figure 2; 25 µM, added 10 min prior stimulation with αMSH (EC80)
# T4 construct: MC4-R cDNA expression results in MC4-R protein NP_005903.2; expressed in transfected cells; host or cells: HEK293/Gα15 cells
# T4 sequence (P32245 whole entry): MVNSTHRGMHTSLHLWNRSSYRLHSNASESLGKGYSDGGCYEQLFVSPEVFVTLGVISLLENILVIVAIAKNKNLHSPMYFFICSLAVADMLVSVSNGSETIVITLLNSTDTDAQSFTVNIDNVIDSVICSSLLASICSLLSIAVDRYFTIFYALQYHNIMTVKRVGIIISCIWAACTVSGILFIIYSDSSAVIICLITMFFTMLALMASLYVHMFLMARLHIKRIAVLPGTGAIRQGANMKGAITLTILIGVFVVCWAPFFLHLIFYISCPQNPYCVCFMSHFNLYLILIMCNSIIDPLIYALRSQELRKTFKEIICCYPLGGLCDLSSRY
# Text: as §2, with “MC4-R” for “MC3-R”, “MC4-receptor” for “MC3-receptor”, “NP_005903.2.” for “NP_063941.3.”
# Stimulation of MC4-R with αMSH increases intracellular Ca^2+-concentration, inhibition of MC4-R decreases these αMSH induced Ca^2+-responses. Changes in intracellular Ca^2+-levels were measured via the Ca^2+-sensitive fluorescent dye Fluo-4 in a fluorescent plate reader.
# as §1, with “stimulation with αMSH (using EC80).” for “addition of ACTH (EC80).”, “defined” for “defined in this experiment”, “αMSH” for “ACTH”
# MC5-R = target: T5, MC5-R (Homo sapiens, UniProt P33032); assay: Determination of compound activity on MC5-R (antagonist testing, Fluo-4 Ca2+ fluorescence in HEK293/Gα15 cells); settings: Figure 2; 25 µM, added 10 min prior stimulation with αMSH (EC80)
# T5 construct: MC5-R cDNA expression results in MC5-R protein NP_005904.1; expressed in transfected cells; host or cells: HEK293/Gα15 cells
# T5 sequence (P33032 whole entry): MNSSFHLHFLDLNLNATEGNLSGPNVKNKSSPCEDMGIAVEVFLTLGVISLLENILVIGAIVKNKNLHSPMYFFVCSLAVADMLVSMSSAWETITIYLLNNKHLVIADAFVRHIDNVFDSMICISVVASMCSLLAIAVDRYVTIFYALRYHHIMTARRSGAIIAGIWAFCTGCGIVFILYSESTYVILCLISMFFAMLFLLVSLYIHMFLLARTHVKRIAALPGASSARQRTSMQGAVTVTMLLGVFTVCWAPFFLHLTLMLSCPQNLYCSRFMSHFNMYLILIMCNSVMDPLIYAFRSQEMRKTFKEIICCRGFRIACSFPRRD
# Text: HEK293 cells stably expressing the target receptor MC5-R and the promiscuous murine Gα15 protein were established on the basis of the above-mentioned HEK293/Gα15 cell line. These cells were further transfected with an expression vector comprising the human MC5-receptor cDNA. MC5-R cDNA expression results in MC5-R protein NP_005904.1.
# Stimulation of MC5-R with αMSH increases intracellular Ca^2+-concentration, inhibition of MC5-R decreases these αMSH induced Ca^2+-responses. Changes in intracellular Ca^2+-levels were measured via the Ca^2+-sensitive fluorescent dye Fluo-4 in a fluorescent plate reader.
# as §1, with “stimulation with αMSH (using EC80).” for “addition of ACTH (EC80).”, “defined” for “defined in this experiment”, “αMSH” for “ACTH”
reduce MC1R activation by (MC1-R; added 10 min prior stimulation with αMSH (EC80 set as 100%)),"reduce MC1R activation to (MC1-R; Figure 2, αMSH (EC80) signal set as 100%, remaining activation)",activity of MC2R (MC2-R),activity of MC3R (MC3-R),activity of MC4R (MC4-R),activity of MC5R (MC5-R),SMILES,inhibition at 10 µM ([1]; 10 µM in culture medium),inhibition at 25 µM ([1]; 25 µM in culture medium)
–,–,–,–,–,–,"CC(=O)N1CCN(c2ccc(OCC3COC(Cn4ccnc4)(c4ccc(Cl)cc4Cl)O3)cc2)CC1 (centres unmarked) [Ketoconazol, reference compound]",-70.9%,–
"51,3%",about 50%,not significantly affected,not significantly affected,not significantly affected,not significantly affected,COc1ccc(CSC(=N)N)cc1Br [Compound (III)],–,-53.4%
